What all share (assay): NCI-60 cell line screen, 48 h
The subject of assay [1] is 786-0.
Assay [2] relates to A549.
The subject of assay [3] is DU-145.
Assay [4] relates to M14.
The test system of assay [5] is MDA-MB-231.
In assay [6] the test system is Malme-3M.
The subject of assay [7] is PC-3.
Assay [8] relates to RPMI-8226.
Assay [9] relates to SF-295.
The subject of assay [10] is SK-MEL-5.
Assay [11] has as its system SNB-75.
For assay [12], the system named is SR.
Assay [13] deals with TK-10.
Assay [14] deals with A498.
Assay [15] has as its system ACHN.
Assay [16] deals with EKVX.
The subject of assay [17] is HOP-62.
For assay [18], the system named is NCI-H460.
Assay [19] concerns SK-OV-3.

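Method: 48-hour compound exposure of cells in 96-well plates, five concentrations, linear interpolation of endpoints. GI50: concentration for 50% inhibition of growth.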 Calls of active or inactive are those of the source. Rule as the data show it: active = GI50 up to about 1.1 µM and inactive = higher.

For `COc1cc(C2c3cc4c(cc3OC(NN=C(C)C)C2C)OCO4)cc(OC)c1O` (stereo unspecified), the GI50 was 28.1 µM (inactive) in assay [1]; 22.9 µM (inactive) in assay [2]; 24.1 µM (inactive) in [3]; 22.6 µM (inactive) in assay [4]; 27.9 µM (inactive) in assay [5]; 8.75 µM (inactive) in assay [6]. Moreover, the GI50 in assay [7] was 20.8 µM (inactive); in assay [8], 6.21 µM (inactive); in [9], 18.9 µM (inactive); in assay [10], 10.8 µM (inactive); in assay [11], 3.66 µM (inactive); in assay [12] it was 1.44 µM (inactive). Besides, the GI50 in assay [13] was 25.4 µM (inactive).
Regarding `COCCCN(Cc1cc(OC)c(OC)c(OC)c1)C(=S)Nc1cccc(Cl)c1`, the GI50 in [1] is 26.5 µM (inactive); in assay [14] it was 28.3 µM (inactive); in assay [2] it was 29 µM (inactive); in [15], 28.6 µM (inactive); in [3], 37.7 µM (inactive); in assay [16], 12.3 µM (inactive). The GI50 in assay [17] was 42.6 µM (inactive); in [4] it was 23.7 µM (inactive); in [5], 26 µM (inactive); in [18], 30.1 µM (inactive); in assay [7], 25.1 µM (inactive); in assay [8], 14.9 µM (inactive). Further, the GI50 is 31.8 µM (inactive) in [9]; 13.9 µM (inactive) in assay [10]; 41 µM (inactive) in [19]; 25.3 µM (inactive) in [11]; 47 µM (inactive) in [13].
As for `COC(=N)/C(=C1\OC(=N)C(c2ccc(Cl)cc2)=C1O)c1ccc(Cl)cc1`, the GI50 in assay [1], in [14], in assay [2], in assay [15], in [16] and in [17] was > 100 µM (inactive) throughout. The GI50 in assay [4] was > 100 µM (inactive); in [6], > 100 µM (inactive); in assay [18] it was > 100 µM (inactive); in assay [8], 81.8 µM (inactive); in assay [9], > 100 µM (inactive); in [10] it was > 100 µM (inactive). The GI50 in [19], in assay [11], in assay [12] and in [13] was > 100 µM (inactive) in each case.
In the case of `CC1(C)OCN(c2ccc(Cl)cc2)Cn2c1nc1ccccc12`, the GI50 is > 89.9 µM (inactive) in assay [1]; 48.9 µM (inactive) in assay [14]; 6.44 µM (inactive) in assay [2]; 31.8 µM (inactive) in [15]; 6.85 µM (inactive) in [3]; 63 µM (inactive) in assay [16]. Also, the GI50 in [17] is > 27.3 µM (inactive); in assay [5], 3.18 µM (inactive); in assay [6] it was > 100 µM (inactive); in [18], > 21.7 µM (inactive); in assay [7] it was 1.94 µM (inactive); in [8], 19 µM (inactive). Besides, the GI50 in assay [10] was 0.571 µM (active); in [19] it was > 100 µM (inactive); in [11], > 100 µM (inactive); in assay [12] it was 9.25 µM (inactive); in [13] it was > 100 µM (inactive).
On to `CCCCNC(=S)N/C=C1\C(=O)Oc2ccccc2C1=O`, for which the GI50 in assay [1] is > 100 µM (inactive); in assay [2], > 100 µM (inactive); in assay [15] it was 31.4 µM (inactive); in [3], 99.3 µM (inactive); in assay [16] it was > 100 µM (inactive); in [17], 80.2 µM (inactive). The GI50 was 76.6 µM (inactive) in assay [4]; 73.8 µM (inactive) in [5]; 64.1 µM (inactive) in assay [18]; 92.5 µM (inactive) in [7]; > 100 µM (inactive) in assay [9]; > 100 µM (inactive) in assay [10]. Also, the GI50 in [19] is > 100 µM (inactive); in assay [11], 2.69 µM (inactive); in assay [13], > 100 µM (inactive).
As to `Cc1cccc(N2C(=O)C(Cl)=C(Cl)C2=O)c1`, the GI50 was > 54.1 µM (inactive) in assay [1]; > 100 µM (inactive) in assay [14]; > 100 µM (inactive) in assay [2]; > 49.1 µM (inactive) in assay [15]; > 74 µM (inactive) in [16]; > 100 µM (inactive) in assay [17]. Moreover, the GI50 is > 55.8 µM (inactive) in assay [4]; > 42.1 µM (inactive) in assay [6]; > 100 µM (inactive) in assay [18]; > 47.1 µM (inactive) in assay [8]; > 100 µM (inactive) in assay [9]; > 100 µM (inactive) in assay [10]. Besides, the GI50 was > 100 µM (inactive) in assay [19], > 100 µM (inactive) in assay [11], 18.2 µM (inactive) in assay [12] and > 66.8 µM (inactive) in assay [13].
Regarding `Oc1cccc(-c2nc3cc(F)ccc3s2)c1`, the GI50 is 19.5 µM (inactive) in [1]; 1.11 µM (active) in [14]; 23.6 µM (inactive) in assay [2]; 23.8 µM (inactive) in assay [15]; 18.7 µM (inactive) in assay [3]; 3.84 µM (inactive) in assay [16]. Also, the GI50 was 18.1 µM (inactive) in [4]; 15.9 µM (inactive) in [5]; 16.2 µM (inactive) in assay [6]; 18.6 µM (inactive) in [18]; 24.2 µM (inactive) in [7]; 20.3 µM (inactive) in [8]. Also, the GI50 was 20.6 µM (inactive) in [9]; 10.7 µM (inactive) in assay [10]; 16.7 µM (inactive) in [19]; 11.1 µM (inactive) in [11]; 18 µM (inactive) in assay [12]; 12.4 µM (inactive) in assay [13].
In the case of `C=C(C)C1CC=C(C)CC1` (stereo unspecified), the GI50 was 923 µM (inactive) in assay [1]; 906 µM (inactive) in assay [14]; 968 µM (inactive) in [2]; 871 µM (inactive) in [15]; 1030 µM (inactive) in [16]; 883 µM (inactive) in [17]. For the same molecule, the GI50 in assay [4] is 893 µM (inactive); in [6], 885 µM (inactive); in [18], 968 µM (inactive); in [8], > 100 µM (inactive); in [9], 925 µM (inactive); in assay [10], 849 µM (inactive). Besides, the GI50 in assay [19] is 1140 µM (inactive); in assay [11], 865 µM (inactive); in assay [12], 889 µM (inactive); in [13], 1000 µM (inactive).
For the molecule `O=C1CC(C2(O)C(=O)Nc3ccc([N+](=O)[O-])cc32)c2ccccc21` (stereo unspecified), the GI50 is 15.8 µM (inactive) in [1]; 72.8 µM (inactive) in assay [14]; 62.4 µM (inactive) in assay [2]; 54.1 µM (inactive) in [15]; 28.6 µM (inactive) in assay [16]; 64 µM (inactive) in [17]. The GI50 is 18.9 µM (inactive) in assay [4]; 40.8 µM (inactive) in assay [6]; 16.3 µM (inactive) in [18]; 20.7 µM (inactive) in assay [8]; 34.1 µM (inactive) in assay [9]; 27.7 µM (inactive) in [10]. The GI50 in [19] is 36.5 µM (inactive); in assay [11] it was 39.5 µM (inactive); in assay [12], 18.2 µM (inactive); in assay [13] it was > 100 µM (inactive).
On to `CCCCC1(OC(=O)CCC(=O)O)CCC2(CCC(C)C(C/C=C(C)/C=C/C(O)C(C)/C=C/C(=O)O)O2)OC1CC/C(C)=C/C(=O)O` (stereo unspecified), for which the GI50 was 3.52 µM (inactive) in assay [1]; 3.26 µM (inactive) in [14]; 12.2 µM (inactive) in assay [2]; 5.74 µM (inactive) in assay [15]; 5.2 µM (inactive) in assay [16]; 2.09 µM (inactive) in assay [17]. In addition, the GI50 in assay [4] is 1.92 µM (inactive); in assay [6] it was 7.73 µM (inactive); in assay [18], 6.18 µM (inactive); in assay [8], 3.15 µM (inactive); in assay [9] it was 4.57 µM (inactive); in assay [10], 1.61 µM (inactive). Moreover, the GI50 in assay [19] is 6.17 µM (inactive); in assay [11], 2.31 µM (inactive); in [12], 3.04 µM (inactive); in assay [13], 17 µM (inactive).
With `O=C1CCCSCCCC(=O)CCCSCCC1`, the GI50 in assay [1], in assay [2], in assay [3], in assay [16], in assay [17] and in [4] was > 100 µM (inactive) in each case. Moreover, the GI50 in assay [5], in assay [18], in assay [7], in assay [9], in assay [10] and in [19] was > 100 µM (inactive) throughout. Moreover, the GI50 in [11] is 93.3 µM (inactive); in assay [12] it was > 100 µM (inactive); in [13] it was > 100 µM (inactive).
On to `COc1ccc2c(c1)CCC1=CC3(CCC12C)SCCS3` (stereo unspecified), for which the GI50 in assay [1] was 5.64 µM (inactive); in assay [2] it was 8.05 µM (inactive); in assay [15] it was 5.3 µM (inactive); in assay [3] it was > 10 µM (inactive); in [17], > 10 µM (inactive); in assay [4], 4.46 µM (inactive). The GI50 in assay [5] was 4.08 µM (inactive); in [6] it was 5.35 µM (inactive); in assay [7], 8.26 µM (inactive); in [8], 3.5 µM (inactive); in assay [9], 3.87 µM (inactive); in assay [10], 6.93 µM (inactive). In addition, the GI50 in [19] was 3.27 µM (inactive); in [11], 0.649 µM (active); in [12], 4.41 µM (inactive); in [13], > 10 µM (inactive).
With `COc1ccc2c(c1)[n+]([O-])c(-c1ccc(Cl)c(Cl)c1)c(N)[n+]2[O-]`, the GI50 in assay [1] is 36.7 µM (inactive); in assay [14], 47.5 µM (inactive); in [2], 30.3 µM (inactive); in [15], 42.6 µM (inactive); in assay [16], 33.6 µM (inactive); in assay [17] it was 60.8 µM (inactive). In addition, the GI50 in assay [4] is 25.7 µM (inactive); in assay [6], 23.6 µM (inactive); in [18] it was 25.1 µM (inactive); in assay [8] it was 31.3 µM (inactive); in [9] it was 78.3 µM (inactive); in [10], 16.5 µM (inactive). Also, the GI50 was 55.1 µM (inactive) in assay [19], 44.7 µM (inactive) in assay [11] and 45 µM (inactive) in assay [12].

(Values after ChEMBL document CHEMBL1201862, “PubChem BioAssay data set” (2004).)
